# Reference: patent US20230158006A1, “USE OF DIRECT THROMBIN INHIBITORS IN THE TREATMENT OF NEURODEGENERATIVE DISEASES” (priority 2020, published 2023)
# “Also recorded” adds a separate entry of the source.
# What was measured:
# [1] = test system: reactive oxygen species; experiment: ROS level (DHE) in frontal cortex brain sections of AD transgenic mice; type: in vivo; details: DTI for 34 weeks, p<0.001 vs untreated AD mice
# Description: Administration of thrombin inhibitor to mice and immunofluorescent staining of mice brain sections: Adult wild-type 3×TgAD—LaFerla (control) and 3×TgAD—LaFerla mice were purchased at 8 weeks of age from The Jackson Laboratory (Bar Harbor, Me.). Daily administration of the orally available direct thrombin inhibitor (DTI) dabigatran etexylate (Pradaxa®, Boehringer Ingelheim, Germany) (100 mg/kg) in PBS to AD mice and vehicle to control mice began at 18 weeks of age and continued daily for 34 weeks. DTI was administered in food. To ensure all food, and therefore drug, was consumed while maintaining ad libitum weight, mice were weighed, and food intake monitored daily. […]
# Detection of reactive oxygen species in cell culture and mouse brain tissue sections: Brain endothelial cell cultures were grown on coverslips in 24-well plates, incubated at 37° C. in serum free media with or without dabigatran (DTI, 1 nM) and exposed to hypoxic (6 h, 1% 02) or normoxic (21% 02) conditions. […] Brain sections and cell cultures were incubated with 5 pM of dihydroethidium (DH E) fluorescence dye (Life Technologies, Grand Island, N.Y.; D23107) and Hoechst33342 NucBlue® stain (Life Technologies, R37605) for 30 min in the dark at room temperature. […] Following two washes with PBS, images were captured immediately using an Olympus IX71 microscope and analyzed using HAMAMATSU imaging software. […]
# [2] = test system: HIF-1a, thrombin, IL-6, MCP-1, MMP2 mRNA; experiment: Real time PCR of brain tissue from AD transgenic mice; type: in vivo; details: 100 mg/kg daily for 34 weeks
# Description: (§1) Administration of thrombin inhibitor to mice and immunofluorescent staining of mice brain sections: Adult wild-type 3×TgAD—LaFerla (control) and 3×TgAD—LaFerla mice were purchased at 8 weeks of age from The Jackson Laboratory (Bar Harbor, Me.). Daily administration of the orally available direct thrombin inhibitor (DTI) dabigatran etexylate (Pradaxa®, Boehringer Ingelheim, Germany) (100 mg/kg) in PBS to AD mice and vehicle to control mice began at 18 weeks of age and continued daily for 34 weeks. DTI was administered in food. To ensure all food, and therefore drug, was consumed while maintaining ad libitum weight, mice were weighed, and food intake monitored daily. All animal procedures were performed in accordance with NIH “Guide for the Care and Use of Laboratory Animals” and Texas Tech University Health Sciences Center Institutional Animal Care and Use Committee (IACUC) guidelines.
# Real-time PCR analysis: RNA from cultured rat brain endothelial cells was prepared using the TRI Reagent RT (Molecular Research Center, Inc., Cincinnati, Ohio), according to manufacturer protocol. […] Fold difference between two samples (relative quantification) was determined by use of the delta-delta method [S1/S2=2−(T1−T2)], where S1 and S2 represent samples 1 and 2, and T1 and T2 represent the threshold cycles of samples 1 and 2, respectively.
# [3] = test system: brain oxidative stress; experiment: Short treatment of transgenic Tg4510 AD mice, brain oxidative stress; type: in vivo; details: non-published results
# Description: Fifteen-month-old Tg4510 mice (The Jackson Laboratory, Bar Harbor, Me.) treated for one week with vehicle dimethyl sulfoxide (DMSO) (Spectrum Chemicals & Laboratory Products, New Brunswick, N.J.) or Dabigatran (Pradaxa®, Boehringer Ingelheim Pharmaceuticals, Inc., Ridgefield, Conn.) at doses of 100 mg/kg via oral gavage. Wild-type control mice were treated with vehicle for one week. Brains were collected and homogenized and protein expression was evaluated using western blot.
# [4] = test system: reactive oxygen species in brain endothelial cell cultures; experiment: ROS levels (DHE) in cultured brain endothelial cells; type: cell-based, rat; details: for hypoxia-induced increase in ROS generation: 6 h hypoxia, p<0.001; for ROS level, mean signal intensity of DHE stained cells to non-stained cells: DTI 1 nM, mean ± SD
# From the text: (§2) Culture and hypoxic exposure of rat brain endothelial cells: Brain endothelial cell cultures were obtained from rat brain micro-vessels, as previously described (Diglio et al., 1993). The purity of these cultures was confirmed using antibodies to the endothelial cell surface antigen Factor VIII. Endothelial cells used in this study (passages 8-15) were maintained in Dulbecco's modified Eagle's medium (DMEM, Sigma-Aldrich, St. Louis, Mo.) supplemented with 10% fetal bovine serum (FBS), 1% antibiotic/antimycotic, and 2 mM glutamine. Confluent endothelial cell cultures were washed three times with Hank's balanced salt solution (HBSS, Gibco, Grand Island, N.Y.) and then incubated at 37° C. with serum-free DMEM for 6 h under hypoxic (1% 02) or normoxic (21% 02) conditions.
# Detection of reactive oxygen species in cell culture and mouse brain tissue sections: Brain endothelial cell cultures were grown on coverslips in 24-well plates, incubated at 37° C. in serum free media with or without dabigatran (DTI, 1 nM) and exposed to hypoxic (6 h, 1% 02) or normoxic (21% 02) conditions. Sections from frozen brain (10-20 µm thickness) were placed on coverslips in 24-well plates with 0.5 ml of PBS at room temperature. Brain sections and cell cultures were incubated with 5 pM of dihydroethidium (DH E) fluorescence dye (Life Technologies, Grand Island, N.Y.; D23107) and Hoechst33342 NucBlue® stain (Life Technologies, R37605) for 30 min in the dark at room temperature. DHE is a cell permeable compound which reacts with intracellular ROS to form oxyethidium, which emits a bright red color detectable by fluorescent microscopy. Following two washes with PBS, images were captured immediately using an Olympus IX71 microscope and analyzed using HAMAMATSU imaging software.
# Brain endothelial cell cultures were incubated in serum-free media or serum free media plus DTI (1 nM) and exposed to hypoxia (1% 02) or normoxic (21% 02) conditions for 6 h. The cells were incubated for 30 min with 5 pM of Dihydroethidium (DHE, red) fluorescent dye and NucBlue stain (blue). ROS generation was assessed by quantitation of signal intensities of DHE stained cells to non-stained cells. Data represent mean signal intensity of DHE stained cells to non-stained cells±SD from at least 3 separate experiments performed in duplicate. ***p<0.001 vs. Control; a p<0.001 vs. Hypoxia.
# [5] = test system: HIF-1a, thrombin, IL-6, MCP-1, MMP2; experiment: Immunofluorescence of cerebrovascular expression of HIF-1a and inflammatory proteins in AD transgenic mice; type: in vivo; details: 100 mg/kg daily for 34 weeks
# Description: as §1
# Mice were euthanized, and brain tissue fixed with 10% neutral buffered formalin (NBF). The brain was removed and 1 mm blocks of tissue from cerebral cortex were post fixed in 10% NBF for additional 12 h and embedded in paraffin. […] Sections (3 per mouse) were incubated with DAPI solution at room temperature for 25 min and viewed using an Olympus IX71 microscope and quantified with HAMAMATSU imaging software. […]
# [6] = test system: TNFa, IL-6, IL-8, MMPs; experiment: Production of inflammatory proteins from endothelial cells in AD models
# [7] = test system: rat brain endothelial cells; experiment: Cell survival by MTT assay, brain endothelial cell cultures exposed to hypoxia or normoxia; type: cell-based
# From the text: as §2
# Measurement of cell survival by MTT assay: Cells were washed with phosphate buffer saline (PBS) and incubated with the MTT reagent 3-(4,5-dimethylthiazol-2-yl)-2-5-diphenyl tetrazolium bromide (1:40 dilution) for 5-10 min at 37° C. The cells convert the MTT reagent to formazan which is quantified by colorimetric assay (Cell Titer 95 Aqueous solution cell proliferation assay, Promega, Madison, Wis.). The formazan product was read at 490 nm. The number of control cells, i.e., viable cells not exposed to any treatment, was defined as 100%.
# Brain micro-vessel endothelial cell cultures were incubated with the DTI dabigatran (10 pM-100 nM), exposed to hypoxia for 6 h and cell viability measured by MTT assay. There was a modest (19%) but significant (p<0.05) increase in cell survival at 1-10 nM DTI while DTI doses in excess of 100 nM were toxic.
# [8] = test system: HIF-1a, thrombin, IL-6, MCP-1, MMP2 mRNA; experiment: Real-time PCR of inflammatory gene expression in brain endothelial cells exposed to 6 h hypoxia; type: cell-based, rat; details: 1 nM, p<0.01-0.001, FIG. 1
# From the text: as §2
# Real-time PCR analysis: RNA from cultured rat brain endothelial cells was prepared using the TRI Reagent RT (Molecular Research Center, Inc., Cincinnati, Ohio), according to manufacturer protocol. […] Fold difference between two samples (relative quantification) was determined by use of the delta-delta method [S1/S2=2−(T1−T2)], where S1 and S2 represent samples 1 and 2, and T1 and T2 represent the threshold cycles of samples 1 and 2, respectively. […]
smiles,measurement,setting,value
CCCCCCOC(=O)NC(=N)c1ccc(NCc2nc3cc(C(=O)N(CCC(=O)OCC)c4ccccn4)ccc3n2C)cc1,ROS generation (DHE level) in brain sections,[1]; FIG. 4,inhibited; also recorded: significantly decreases expression
same,ROS generation (DHE level) in brain sections,"[1]; FIG. 4, listed as DTI",decreased DHE level
same,"RNA levels of HIF-1a, thrombin, IL-6, MCP-1, MMP2 in brain tissue","[2]; p<0.01 to p<0.001, FIG. 3",reduces expression
same,"RNA levels of HIF-1a, thrombin, IL-6, MCP-1, MMP2 in brain tissue","[2]; p<0.01 to p<0.001, FIG. 3, listed as DTI",decrease in RNA levels
same,brain oxidative stress,[3],lowering brains' oxidative stress
same,hypoxia-induced increase in ROS generation,[4],inhibited
same,hypoxia-induced increase in ROS generation,[4]; listed as DTI,blocked
same,"ROS level, mean signal intensity of DHE stained cells to non-stained cells",[4]; Control + DTI: normoxic (21% O2) 6 h,0.65±
same,"ROS level, mean signal intensity of DHE stained cells to non-stained cells","[4]; Hypoxia + DTI: hypoxia (1% O2) 6 h, p<0.001 vs. Hypoxia",0.92 ± 0.06a
same,"cerebrovascular expression of HIF-1a, thrombin, IL-6, MCP-1, MMP2 proteins",[5]; FIG. 2,significantly decreases expression
same,"cerebrovascular expression of HIF-1a, thrombin, IL-6, MCP-1, MMP2 proteins","[5]; FIG. 2, listed as DTI",reduced expression of these proteins
same,"production of TNFa, IL-6, IL-8, MMPs and other inflammatory proteins from endothelial cells",[6],reducing the production
same,increase in cell survival,"[7]; hypoxia 6 h, 1-10 nM DTI, p<0.05",19%
same,DTI doses toxic to cells,"[7]; hypoxia 6 h, MTT",> 100 nM
same,effect on cell survival under normoxic conditions,"[7]; normoxic, doses under 100 nM, data not shown",did not affect cell survival
same,"hypoxia-mediated effects on inflammatory gene expression (HIF-1a, thrombin, IL-6, MCP-1, MMP2 mRNA)",[8],reduced hypoxia-mediated effects on inflammatory gene expression
